According to patent publication US9096639B2, “17-hydroxy-17-pentafluorethyl-estra-4,9(10)-dien-11-acyloxyalkylene phenyl derivatives, methods for the production thereof and use thereof for treating diseases” (Bayer Intellectual Property GmbH, priority 2009, dated 2015):

Assays:
Format in all cases: in vitro ADME
[1] = Determination of hydrolytic stability in synthetic gastric juice (pH 1.2 buffer with pepsin); settings: 37° C., pH 1.2 with added pepsin, test ended after 24 hours, read-out: Hydrolytic stability t1/2 in synthetic gastric juice (converted)
Protocol: The esters to be analyzed were dissolved in each case in a buffer solution of pH 1.2 with added pepsin at 37° C. At different times, the content of ester and hydrolysis products (8S,11R,13S,14S,17S)-17-hydroxy-11-[4-((R)-1-hydroxyethyl)phenyl]-1 3-methyl-17-pentafluoroethyl-1,2,6,7,8,11,12,13,14,15,16,17-dodecahydrocyclopenta[a]phenanthren-3-one and/or (8S,11R,13S,14S,17S)-17-hydroxy-11-[4-((S)-1-hydroxyethyl)phenyl]-13-methyl-17-pentafluoroethyl-1,2,6,7,8,11,12,13,14,15,16,17-dodecahydrocyclopenta[a]phenanthren-3-one was determined by HPLC. The test was ended after 24 hours.

[2] = Determination of stability in rat plasma; settings: 37° C., read-out: Stability t1/2 in rat plasma (converted)
Protocol: (§1) A stock solution of 1.0 mg of the substance to be tested in a 9:1 mixture of acetonitrile and dimethyl sulphoxide was prepared. 20 μl of this stock solution were added at 37° C. to 1 ml of human plasma or rat plasma. To determine the content, 100 μl samples were each taken at different times. The enzyme activity was blocked by adding 300 μl of acetonitrile, the samples were centrifuged at 5000 rpm over 10 minutes and, in the supernatant, the content of ester and hydrolysis products (8S,11R,13S,14S,17S)-17-hydroxy-11-[4-((R)-1-hydroxyethyl)phenyl]-1 3-methyl-17-pentafluoroethyl-1,2,6,7,8,11,12,13,14,15,16,17-dodecahydrocyclopenta[a]phenanthren-3-one and/or (8S,11R,13S,14S,17S)-17-hydroxy-11-[4-((S)-1-hydroxyethyl)phenyl]-13-methyl-17-pentafluoroethyl-1,2,6,7,8,11,12,13,14,15,16,17-dodecahydrocyclopenta[a]phenanthrene-3-one was determined by HPLC. The concentration-time curves were used to calculate the degradation kinetics. The stability of the substance tested was reported as the half-life.

[3] = Determination of stability in human plasma
Protocol: as §1

[4] = 37° C., read-out: Stability t1/2 in human plasma (converted)
[5] = method of working example 19, summary statement in description, read-out: half-life in human plasma

| Compound | half-life [1] [min] | half-life [2] [days] | half-life [3, 4] [days] | half-life [3, 5] [days] |
| --- | --- | --- | --- | --- |
| CC(=O)O[C@H](C)c1ccc([C@H]2C[C@@]3(C)C(CC[C@@]3(O)C(F)(F)C(F)(F)F)C3CCC4=CC(=O)CCC4=C32)cc1 (mixture of isomers) [Example 1, acetic acid (RS)-1-[4-((8S,11R,13S,14S,17S)-17-hydroxy-13-methyl-3-oxo-17-pentafluoroethyl-2,3,6,7,8,11,12,13,14,15,16,17-dodecahydro-1H-cyclopenta[a]phenanthren-11-yl)phenyl]ethyl ester] | 576 | 2.4 | 25.4 | > 4.17 |
| CC(C)CC(=O)OC(C)c1ccc([C@H]2C[C@@]3(C)C(CC[C@@]3(O)C(F)(F)C(F)(F)F)C3CCC4=CC(=O)CCC4=C32)cc1 (mixture of isomers) [Example 3, 3-Methylbutyric acid (RS)-1-[4-((8S,11R,13S,14S,17S)-17-hydroxy-13-methyl-3-oxo-17-pentafluoroethyl-2,3,6,7,8,11,12,13,14,15,16,17-dodecahydro-1H-cyclopenta[a]phenanthren-11-yl)phenyl]ethyl ester] | > 1440 | 3.71 | > 41.7 | > 4.17 |
| CC(OC(=O)CC(C)(C)C)c1ccc([C@H]2C[C@@]3(C)C(CC[C@@]3(O)C(F)(F)C(F)(F)F)C3CCC4=CC(=O)CCC4=C32)cc1 (mixture of isomers) [Example 4, 3,3-Dimethylbutyric acid (RS)-1-[4-((8S,11R,13S,14S,17S)-17-hydroxy-13-methyl-3-oxo-17-pentafluoroethyl-2,3,6,7,8,11,12,13,14,15,16,17-dodecahydro-1H-cyclopenta[a]phenanthren-11-yl)phenyl]ethyl ester] | > 1440 | > 41.7 | > 41.7 | > 4.17 |
| CC(OC(=O)[C@@H](C)NC(=O)OC(C)(C)C)c1ccc([C@H]2C[C@@]3(C)[C@@H](CC[C@@]3(O)C(F)(F)C(F)(F)F)[C@@H]3CCC4=CC(=O)CCC4=C32)cc1 (mixture of isomers) [Example 6, (R)-2-tert-Butoxycarbonylaminopropionic acid (RS)-1-[4-((8S,11R,13S,-14S,17S)-17-hydroxy-13-methyl-3-oxo-17-pentafluoroethyl-2,3,6,7,8,11,12,13,14,15,16,17-dodecahydro-1H-cyclopenta[a]phenanthren-11-yl)phenyl]ethyl ester] | 324 | 1.83 | 20.5 | > 4.17 |
| CC(C)C(=O)OC(C)c1ccc([C@H]2C[C@@]3(C)C(CC[C@@]3(O)C(F)(F)C(F)(F)F)C3CCC4=CC(=O)CCC4=C32)cc1 (mixture of isomers) [Example 2, Isobutyric acid (RS)-1-[4-((8S,11R,13S,14S,17S)-17-hydroxy-13-methyl-3-oxo-17-pentafluoroethyl-2,3,6,7,8,11,12,13,14,15,16,17-dodecahydro-1H-cyclopenta[a]-phenanthren-11-yl)phenyl]ethyl ester] | > 1440 | 1.39 | 33.5 | > 4.17 |
| CC(OC(=O)[C@@H](NC(=O)OC(C)(C)C)C(C)C)c1ccc([C@H]2C[C@@]3(C)C(CC[C@@]3(O)C(F)(F)C(F)(F)F)C3CCC4=CC(=O)CCC4=C32)cc1 (mixture of isomers) [Example 5, (S)-2-tert-Butoxycarbonylamino-3-methylbutyric acid (RS)-1-[4-((8S,11R,-13S,14S,17S)-17-hydroxy-13-methyl-3-oxo-17-pentafluoroethyl-2,3,6,7,8,11,12,13,14,15,-16,17-dodecahydro-1H-cyclopenta[a]phenanthren-11-yl)phenyl]ethyl ester] | 180 | 6.5 | > 41.7 | > 4.17 |
| CC(OC(=O)[C@H](C)NC(=O)OC(C)(C)C)c1ccc([C@H]2C[C@@]3(C)C(CC[C@@]3(O)C(F)(F)C(F)(F)F)C3CCC4=CC(=O)CCC4=C32)cc1 (mixture of isomers) [Example 7, (S)-2-tert-Butoxycarbonylaminopropionic acid (RS)-1-[4-((8S,11R,13S,-14S,17S)-17-hydroxy-13-methyl-3-oxo-17-pentafluoroethyl-2,3,6,7,8,11,12,13,14,15,16,17-dodecahydro-1H-cyclopenta[a]phenanthren-11-yl)phenyl]ethyl ester] | 264 | 0.129 | > 41.7 | > 4.17 |
